Consider four compounds from ChEMBL document CHEMBL1137330, “Synthesis and pharmacokinetics of valopicitabine (NM283), an efficient prodrug of the potent anti-HCV agent 2'-C-methylcytidine” (J Med Chem, 2006).

A word on the Cmax: it is the maximum level reached in the sampled fluid or tissue. As a reminder, the Tmax is the time from dosing to the highest level. As a reminder, the solubility is the dissolved amount per volume that the medium holds. Lower therefore signals little dissolved substance. The term logP denotes the decadic logarithm of the partition coefficient of the neutral form, usually between octanol and water. Lower therefore signals lower lipophilicity. What is called AUC(0-t) is exposure summed from dosing to a finite time, without extrapolation to infinity. A higher AUC(0-t) goes with high exposure.

SMILES strings stand for the structures. Values after ≈ are worked out from the molar mass of the structure shown.

Data set [1] relates to Rattus norvegicus. The data set can be described thus: Urinary excretion in intact Sprague-Dawley rat at 100 mg/kg, po after 168 hrs. The class given is ADME, organism-based, Urine. Further details: dose 100 mg/kg, route oral; call rule not given here. The note with it: in vivo.
Data set [2] in a line: Biliary excretion in bile duct cannulated Sprague-Dawley rat at 100 mg/kg, po after 72 hrs. The class given is ADME, organism-based. Details: dose 100 mg/kg, route oral. The conditions noted are these: read-out: Activity.
The nature of data set [3]: Fecal excretion in bile duct cannulated Sprague-Dawley rat at 100 mg/kg, po after 72 hrs. The note with it: faeces, read-out: Activity. The class given is ADME, organism-based. Further details: dose 100 mg/kg, route oral.
Data set [4] can be described thus: Urinary excretion in bile duct cannulated Sprague-Dawley rat at 100 mg/kg, po after 72 hrs. Type of data set: ADME, organism-based. Details: dose 100 mg/kg, route oral. The conditions noted are these: urine, read-out: Activity.
The nature of data set [5]: Fecal excretion in intact Sprague-Dawley rat at 100 mg/kg, po after 168 hrs. The conditions noted are these: faeces, read-out: Activity. The class given is ADME, organism-based. Details: dose 100 mg/kg, route oral.
Data set [6] deals with Rattus norvegicus. The data set can be described thus: (§1) AUC (0-t) in jugular vein cannulated Sprague-Dawley rat at 100 mg/kg, po. Further details: dose 100 mg/kg, route oral. The note with it: in vivo. The class given is ADME, organism-based, Plasma.
In data set [7] the test system is Rattus norvegicus. As to the kind of experiment: Apparent oral bioavailability in jugular vein cannulated Sprague-Dawley rat at 100 mg/kg, po administered as prodrug. The class given is ADME, organism-based. The note with it: in vivo.
In data set [8] the test system is Rattus norvegicus. As to the kind of experiment: Cmax in jugular vein cannulated Sprague-Dawley rat at 100 mg/kg, po administered as prodrug. The class given is ADME, organism-based. Further details: dose 100 mg/kg, route oral. The note with it: in vivo.
Data set [9] deals with Rattus norvegicus. As to the kind of experiment: Terminal half life in jugular vein cannulated Sprague-Dawley rat at 100 mg/kg, po administered as prodrug. Type of data set: ADME, organism-based. Details: dose 100 mg/kg, route oral. The note with it: in vivo.
In data set [10] the test system is Rattus norvegicus. The data set can be described thus: Tmax in jugular vein cannulated Sprague-Dawley rat at 100 mg/kg, po administered as prodrug. The class given is ADME, organism-based. Details: dose 100 mg/kg, route oral. The conditions noted are these: in vivo.
Data set [11] concerns Rattus norvegicus. The data set can be described thus: AUC(0-t) in jugular vein cannulated Sprague-Dawley rat at 100 mg/kg, po administered as prodrug. Details: dose 100 mg/kg, route oral. Type of data set: ADME, organism-based, Plasma. The note with it: in vivo.
The nature of data set [12]: Cmax in Sprague-Dawley rat after 15 days at 60 mg/kg/day, iv. Details: dose 60 mg/kg/day, route intravenous. The class given is ADME, organism-based. The note with it: in vivo.
Data set [13] is described as follows: AUC in Sprague-Dawley rat after 15 days at 60 mg/kg/day, iv. Type of data set: ADME, organism-based. Further details: route intravenous. The note with it: plasma.
Data set [14] is described as follows: Aqueous solubility of the compound. The class given is physicochemical.
Data set [15] is described as follows: Distribution coefficient, log P of the compound. The conditions noted are these: octanol/water. The class given is physicochemical.
The nature of data set [16]: Chemical stability at pH 4.5. The class given is physicochemical. The note with it: buffer.
Data set [17] can be described thus: Chemical stability at pH 7.2. Type of data set: physicochemical. The conditions noted are these: buffer.
A short description of data set [18]: Protein binding in rat plasma at 20 uM. The class given is ADME, cell-free. The conditions noted are these: read-out: PPB (converted).
Data set [19] in a line: Chemical stability at pH 1.2. Type of data set: physicochemical. The conditions noted are these: buffer.
The nature of data set [20]: Cmax in jugular vein cannulated Sprague-Dawley rat at 100 mg/kg, po. Type of data set: ADME, organism-based. Details: dose 100 mg/kg, route oral. The conditions noted are these: in vivo.
Data set [21] can be described thus: as §1. Type of data set: ADME, organism-based, Plasma. Details: dose 100 mg/kg, route oral. The note with it: Sprague-Dawley, plasma.
Data set [22] in a line: Terminal half life in jugular vein cannulated Sprague-Dawley rat at 100 mg/kg, po. Type of data set: ADME, organism-based. The conditions noted are these: in vivo, read-out: beta t1/2 (converted). Further details: dose 100 mg/kg, route oral.
Data set [23] can be described thus: Tmax in jugular vein cannulated Sprague-Dawley rat at 100 mg/kg, po. The class given is ADME, organism-based. Details: dose 100 mg/kg, route oral. The note with it: in vivo.
For data set [24], the system named is Plasma. As to the kind of experiment: Drug level in jugular vein cannulated Sprague-Dawley rat plasma after 12 hrs. Type of data set: ADME, cell-free.
Data set [25] is described as follows: Half life in human whole blood. The class given is ADME, organism-based.
Data set [26] can be described thus: Half life at pH 4.5. The conditions noted are these: buffer. Type of data set: ADME.
A short description of data set [27]: Half life at pH 7.2. The class given is ADME. The conditions noted are these: buffer.
For data set [28], the species on record is Homo sapiens. The data set can be described thus: Conversion of prodrug to 2'-C-methylcytidine in human liver cytosol. The class given is ADME, organism-based.
Data set [29] is filed under the species Homo sapiens. As to the kind of experiment: Conversion of prodrug to 2'-C-methylcytidine in human liver S9 fraction. Type of data set: ADME, organism-based.
The species entered for data set [30] is Homo sapiens. As to the kind of experiment: Half life in human plasma.

With `CC(C)C(N)C(=O)O[C@H]1[C@H](CO)O[C@H](n2ccc(N)nc2=O)[14C@@]1(C)O.Cl.Cl` (stereo partly drawn), the Activity in data set [1] was 31.9%. The dose excreted at 72 h in data set [2] is 0.3%; in data set [3] it was 65.9%; in [4] it was 29.8%. Also, the dose excreted at 168 h in data set [5] came out at 63.5%.

In the case of `C[C@@]1(O)[C@@H](n2ccc(=O)[nH]c2=O)O[C@@H](CO)[C@@H]1O`, the AUC in data set [6] is under 0.1 µg/mL.

On to `C[C@@]1(O)[C@H](O)[C@@H](CO)O[C@H]1n1ccc(N)nc1=O`, for which the F in data set [7] amounted to 33.6%. The figures for the peak concentration (Cmax) in data set [8] and in data set [12] were 6120 ng/mL and 75600 ng/mL, respectively. In addition, the “beta t1/2” value in [9] was found to be 7.1 h. Further, the Tmax in data set [10] is 2 h. Moreover, the AUC in [11] was determined as 30000 ng·h/mL. Besides, the AUC at 360 h in data set [13] is 74400 ng·h/mL. Besides, the solubility in data set [14] was 32 mg/mL (≈ 124 mM). The logP in data set [15] is -0.965. The Stability result in data set [16], in data set [17] and in data set [19] was “Stable” throughout. In data set [18], the fraction unbound at 20 µM is 0.95.

For the compound `CC(C)[C@H](N)C(=O)O[C@@H]1[C@@H](CO)O[C@@H](n2ccc(N)nc2=O)[C@]1(C)O.Cl.Cl` [VALOPICITABINE DIHYDROCHLORIDE], the Cmax in data set [20] is 3620 ng/mL. Also, the AUC(0-t) in data set [21] was determined as 8950 ng·h/mL. Further, the half-life in [22] was 0.64 h; in data set [25], 0.667 h; in data set [26], 146 h; in data set [27], 3.9 h; in data set [30] it was 2.17 h. Moreover, the Tmax in data set [23] is 1 h. The Activity entry in [24] is reported as “Not Active”; in data set [28], 30%; in data set [29] it was 30%. In addition, in data set [14], the solubility was 423 mg/mL. For the same compound, the logP in [15] is -1.34. Moreover, the fraction unbound at 20 µM in [18] was 0.93.
